Data taken from the NIST ThermoML archive (doi:10.1021/acs.jced.5b00717).
± gives the expanded uncertainty stated by the source.

Test: an = ratio of the nth substance listed
Conditions: 101 kPa, Liquid; for mass density: Vibrating tube method; for viscosity: rotating cylinders

| SMILES | mass density (293.15 K, a2 = 2) [kg/m3] | mass density (293.15 K, a2 = 4) [kg/m3] | viscosity (293.15 K, a2 = 2) [mPa·s] | viscosity (293.15 K, a2 = 4) [mPa·s] | mass density (298.15 K, a2 = 2) [kg/m3] | mass density (298.15 K, a2 = 4) [kg/m3] | viscosity (298.15 K, a2 = 2) [mPa·s] | viscosity (298.15 K, a2 = 4) [mPa·s] | mass density (303.15 K, a2 = 2) [kg/m3] | mass density (303.15 K, a2 = 4) [kg/m3] | viscosity (303.15 K, a2 = 2) [mPa·s] | viscosity (303.15 K, a2 = 4) [mPa·s] | mass density (308.15 K, a2 = 2) [kg/m3] | mass density (308.15 K, a2 = 4) [kg/m3] | viscosity (308.15 K, a2 = 2) [mPa·s] | viscosity (308.15 K, a2 = 4) [mPa·s] | mass density (313.15 K, a2 = 2) [kg/m3] | mass density (313.15 K, a2 = 4) [kg/m3] | viscosity (313.15 K, a2 = 2) [mPa·s] | viscosity (313.15 K, a2 = 4) [mPa·s] | other results |
| --- | --- | --- | --- | --- | --- | --- | --- | --- | --- | --- | --- | --- | --- | --- | --- | --- | --- | --- | --- | --- | --- |
| C[N+](C)(C)CCO.[Cl-] [choline chloride] + OCC(O)CO | 1194 ± 5 | 1217 ± 5 | 514.6 ± 41 | 578.2 ± 48 | 1191 ± 5 | 1214 ± 5 | 365.7 ± 25 | 400.3 ± 28 | 1188 ± 5 | 1211 ± 5 | 265.7 ± 15 | 283.4 ± 17 | 1185 ± 5 | 1208 ± 5 | 197 ± 9.3 | 205.1 ± 9.9 | 1183 ± 5 | 1205 ± 5 | 148.9 ± 5.6 | 151.7 ± 5.8 | mass density (318.15 K, a2 = 2): 1180 ± 5 kg/m3; mass density (318.15 K, a2 = 4): 1202 ± 5 kg/m3; viscosity (318.15 K, a2 = 2): 114.7 ± 3.4 mPa·s; viscosity (318.15 K, a2 = 4): 113 ± 3.3 mPa·s; mass density (323.15 K, a2 = 2): 1177 ± 5 kg/m3; mass density (323.15 K, a2 = 4): 1200 ± 5 kg/m3; viscosity (323.15 K, a2 = 2): 89.81 ± 2 mPa·s; viscosity (323.15 K, a2 = 4): 87.96 ± 1.9 mPa·s |
| C[N+](C)(C)C.[Cl-] [tetramethylammonium chloride] + OCC(O)CO | 1158 ± 5 | 1180 ± 5 | 581.8 ± 48 | 557.5 ± 46 | 1155 ± 5 | 1177 ± 5 | 406.9 ± 29 | 384.7 ± 27 | 1152 ± 5 | 1174 ± 5 | 290.5 ± 17 | 272 ± 16 | 1149 ± 5 | 1171 ± 5 | 212.4 ± 10 | 197 ± 9.3 | 1147 ± 5 | 1168 ± 5 | 158.5 ± 6.3 | 145.8 ± 5.4 | mass density (318.15 K, a2 = 2): 1144 ± 5 kg/m3; mass density (318.15 K, a2 = 4): 1166 ± 5 kg/m3; viscosity (318.15 K, a2 = 2): 120.7 ± 3.7 mPa·s; viscosity (318.15 K, a2 = 4): 110.2 ± 3.1 mPa·s; mass density (323.15 K, a2 = 2): 1141 ± 5 kg/m3; mass density (323.15 K, a2 = 4): 1163 ± 5 kg/m3; viscosity (323.15 K, a2 = 2): 93.57 ± 2.1 mPa·s; viscosity (323.15 K, a2 = 4): 84.8 ± 1.7 mPa·s |
